{"source": "patent US12398110B2", "about": "“Second generation inhibitors of mitochondrial permeability transition pore with improved plasma stability” (Oregon Health & Science University, priority 2019, dated 2025)", "key": {"[1]": {"system": "col6a1 zebrafish morphants", "assay": "Spontaneous coiling events in col6a1 zebrafish morphants", "assay_type": "in vivo", "details": "24 hpf, 3 hours of treatment, 0.1, 1 or 10 μm", "protocol": "(§1) Zebrafish embryos were injected with col6a1 morpholino at the 1-cell stage, dechorionated at 20 hpf and treated at 21 hpf with 0.1, 1 or 10 μm of either TR001 or 63. DMSO-treated embryos injected with a scrambled morpholino were used as a control. […] It should be noted that in these protocols, embryos were exposed to drugs for a longer period of time than in the spontaneous coiling experiments. This difference may help to explain why TR001 was as effective at 0.1 μm as it was at 1 and 10 μm.\nMorpholino antisense injection and treatment. Knock-down of col6a1 gene expression was obtained with a previously published morpholino ^[25] with sequence GAGAGCGGAAGACGAACCTTCATTC (SEQ ID NO: 2; GeneTools, Inc.). A control morpholino with no sequence homology in the zebrafish genome was used in parallel (CCTCTTACCTCAGTTACAATTTATA; SEQ ID NO: 3). […]\nMotor activity. The number of spontaneous coiling events performed in 15 seconds by single zebrafish embryos was recorded at 24 hpf by light microscopy. Touch-evoked escape responses were recorded at 48 hpf by observing the ability of zebrafish embryos to escape after a tail-touch with a little tip. […]"}, "[2]": {"system": "col6a1 zebrafish morphants", "assay": "Touch-evoked escape response in col6a1 zebrafish morphants", "assay_type": "in vivo", "details": "48 hpf", "protocol": "as §1\n(§2) Morpholino antisense injection and treatment. Knock-down of col6a1 gene expression was obtained with a previously published morpholino ^[25] with sequence GAGAGCGGAAGACGAACCTTCATTC (SEQ ID NO: 2; GeneTools, Inc.). A control morpholino with no sequence homology in the zebrafish genome was used in parallel (CCTCTTACCTCAGTTACAATTTATA; SEQ ID NO: 3). Zebrafish eggs from wild-type matings were injected at the 1-2 cell stage with approximately 10 nL of 0.1 mm morpholino solution (corresponding to 4 ng of morpholino) using a WPI pneumatic PicoPump PV820 injector (World Precision Instruments, Inc.). Zebrafish embryos were dechorionated at 20 hours post fertilization (hpf) and treated at 21 hpf with increasing doses (0.1, 1 and 10 μm) of both TR001 and 63 compounds dissolved in fish water with 1% DMSO (vehicle).\nMotor activity. The number of spontaneous coiling events performed in 15 seconds by single zebrafish embryos was recorded at 24 hpf by light microscopy. Touch-evoked escape responses were recorded at 48 hpf by observing the ability of zebrafish embryos to escape after a tail-touch with a little tip. Embryos were subdivided in 4 groups according to the observed phenotype: paralyzed embryos, score 0; underdeveloped embryos showing only coiling events, score 1; embryos showing lower motility, score 2; normal embryos, score 3."}, "[3]": {"system": "col6a1 zebrafish morphants", "assay": "Survival of col6a1 zebrafish morphants", "assay_type": "in vivo", "text": "In FIG. 6D, the left panel represents data from embryos injected with a scrambled morpholino (scrd_MO, open squares), Exon 9 col6a1 morpholino (col6a1_MO, closed squares) and col6a1_MO embryos treated with TR001 at 0.1 μm (open circles), 1.0 μm (open triangles), 10 μm (open diamonds). Right panel represents data from embryos injected with a scrambled morpholino (scrd_MO, open squares), Exon 9 col6a1 morpholino (col6a1_MO, closed squares) and col6a1_MO embryos treated with 63 at […] (closed circles), 1.0 μm (closed triangles), 10 μm (closed diamonds). Embryos were treated with oligomycin, FCCP, rotenone (R) and antimycin A (A) as indicated. Results are presented as mean±SEM. Both graphs report data from 5 independent experiments with n=20 for each treatment. Error bars are reported as SEM. FIG. 6E, Survival of DMSO-treated zebrafish injected with the scrambled morpholino (open squares), DMSO-treated col6a1 morphants (closed squares) and col6a1 morphants treated with TR001 (0.1 μm, open triangles; 1.0 μm, open circles; 10 μm, open diamonds) or 63 (0.1 μm, closed triangles; 1.0 μm, closed circles; 10 μm, closed diamonds) were recorded for 30 days. Treatment started at 21 hpf and repeated at 4 dpf (arrows). Data report the percentage of surviving fish and are mean±SEM from 3 independent experiments (n=15 for each condition in each set).\nFinally, fish survival was also assessed. Fifty percent of col6a1 morphant embryos treated with 0.1 μm of TR001 survived 7 days longer than col6a1 morphants treated with DMSO (p<0.0001 from 3 to 12 dpf), and 20% were still alive at 30 dpf (i.e., after 29 days of treatment) (FIG. 6E).\nas §2\nSurvival. Zebrafish survival was monitored every 3 days for 30 days. Drug treatment with both TR001 and 63 dissolved in fish water with 1% DMSO started at 21 hpf. After 3 days of treatment (4 days post fertilization, dpf), zebrafish were moved to a bigger tank (50 mL) with fresh compounds dissolved in 1% DMSO. As a control vehicle, fish water with 1% DMSO was used."}, "[4]": {"system": "col6a1 zebrafish morphants", "assay": "Birefringence (muscle structure) in col6a1 zebrafish morphants", "assay_type": "in vivo", "details": "48 hpf", "protocol": "Muscle structure was assessed by birefringence analysis at 48 hpf, a time when muscle tissue is fully developed and organized muscle fibers start to show anisotropic features. A high percentage of severe birefringence abnormality (>75%, FIG. 6C) was detected in col6a1 morphants, indicating major defects of muscle fiber development and organization.\nas §2, with “Zebrafish embryos were dechorionated at 20 hours post fertilization (hpf) and treated at 21 hpf with increasing doses (0.1, 1 and 10 μm) of both TR001 and 63 compounds dissolved in fish water with 1% DMSO (vehicle).” left out\nBirefringence. Muscle structure was monitored by birefringence analysis, taking advantage of muscle anisotropy, which is the ability of muscle fibers to refract polarized light. […] With this set-up, light refracted by muscle fibers (due to the pseudo-crystalline array of sarcomeres) is transmitted and analyzed. Integrated area of birefringence was calculated using ImageJ software. […]"}, "[5]": {"assay": "Plasma stability determination in mouse plasma", "assay_type": "in vitro ADME", "details": "mouse, plasma, read-out: half-life (t1/2) in plasma", "protocol": "Plasma stability determination. The degradation of TR001 in the presence of mouse plasma (from Innovative Research) was used to predict the plasma stability of the compound to esterase catalyzed hydrolysis. A positive control for plasma cholinesterase, propantheline bromide, was included in all assays. Briefly, murine plasma was incubated with 1 μm TR001. Aliquots were removed at t=0, 5, 15, 30, and 60 and 120 min and quenched with acetonitrile containing structurally related compound (TR073) as the internal standard. The amount of TR001 remaining in the supernatant was assessed by LC-MS/MS in multiple reaction monitoring mode (MRM) using a 4000 QTRAP (SCIEX) with electrospray ionization source. The instrument was operated in negative mode with source parameters: source voltage […], GS1 50, GS2 50, CUR 30, TEM 650 and CAD gas MED. Optimal MRM transitions were obtained by direct infusion of the pure compound into the source. The mass spectrometer was interfaced to a Shimadzu (Columbia, MD) SIL-20AC XR auto-sampler maintained at 35° C. followed by 2 LC-20AD XR LC pumps. The internal standard and compound of interest were resolved using a Gemini-NX C18 50×2.1 mm column (Phenomenex) with 0.1% formic acid (solvent A) and 0.1% formic acid in acetonitrile (solvent B). The injection volume was 10 μL at a flow rate of 0.75 mL/min. The gradient elution was 10% B to 95% B over 5 min and held at 95% for 1 min before returning to start conditions. The column was maintained at 40° C. using a Shimadzu CTO-20AC column oven. Data were acquired using Analyst 1.6.2 and analyzed using Multiquant 3.0.1 software. The first-order rate constant for substrate depletion was determined from a linear least squares fit of the natural log of the percent parent compound remaining versus time. The rate constant was used to calculate the plasma half-life as an indicator of stability."}}, "data": [{"smiles": "Cc1ccc(Cl)cc1NC(=O)c1cc(-c2ccc(F)c(O)c2)on1", "note": "[Compound 63, reference compound]", "values": [{"measurement": "spontaneous coiling events", "setting": "[1]", "result": "no effect"}, {"measurement": "touch-evoked escape response (motility)", "setting": "[2]; 0.1-1.0 μM", "result": "minimal recovery"}, {"measurement": "touch-evoked escape response (motility)", "setting": "[2]; 10 μm", "result": "no longer seen"}, {"measurement": "survival (in words)", "setting": "[3]; 1 μm", "result": "ineffected"}, {"measurement": "survival (in words)", "setting": "[3]; 10 μm", "result": "ineffected"}, {"measurement": "survival (in words)", "setting": "[3]; lowest concentration tested (0.1 μm)", "result": "decreased activity compared to TR001"}, {"measurement": "muscle structure by birefringence", "setting": "[4]", "result": "minimal effect"}, {"measurement": "half-life at 1 µM", "setting": "[5]", "result": 21, "unit": "min"}]}]}
